Data reported in publication PMC6882462 (Journal of Enzyme Inhibition and Medicinal Chemistry, 2019).
Where two headings read alike, the source gives them in different places.

Experiments:
[1] = test system: human breast carcinoma cell line MCF-7; assay: MTT antiproliferative assay against MCF-7; format: cell-based; conditions: read-out: IC50 (anticancer activity against MCF-7 cell line)
Protocol: All the synthesised naphthalene-chalcone derivatives 3a–3t were evaluated for their anticancer activity by 3-[4,5-dimethylthiazole-2-yl]-2,5-diphenyltetrazolium bromide (MTT) assay method against human breast carcinoma cell line MCF-7. Cisplatin was used as a reference drug. […]. […]
culture, the culture medium was removed, and cells were incubated with tetrazolium dye [3-(4,5-dimethylthiazol-2-yl)-2,5-diphenyltetrazo-lium bromide (MTT) solution for 4 h. Then, the supernatant was removed and the precipitates (formazan crystal) were […]
dissolved in DMSO. […]

tubulin = assay: In vitro tubulin polymerisation inhibitory assay; format: biochemical
Protocol: 1.3 In vitro tubulin polymerization assay
To evaluate the eﬀect of the compound 3a on tubulin assembly in vitro, varying
DMSO were incubated with purified tubulin protein in PEM buffer [100 mM PIPES
(1,4-Piperazinediethanesulfonic acid), 1 mM MgCl2, and 1 mM EGTA(ethylene glycol
tetraacetic acid)] containing 1 mM GTP and 5 % glycerol. […]

MCF-7 cells [2] = assay: Cell cycle analysis by flow cytometry (PI); format: cell-based, human; conditions: 2.0 µM, 24 h
Description: Many studies have reported that tubulin polymerisation inhibitors can arrest cancer cells in G2/M phase and lead to apoptosis[24]^,[25]. The potent tubulin polymerisation inhibitory activity of compound 3a promoted us to further investigate its cellular mechanisms of action in MCF-7 cancer cells by using flow cytometry analysis. In order to elucidate the molecular mechanism of compound 3a, we first studied its effect on cell cycle progression in MCF-7 cells. […] In contrast, after treatment of MCF-7 cells with compound 3a at concentrations of 2.0 µM, the accumulation of cancer cells was detected at G2/M phase by 5.5 folds compared to the control group, from 15.19% in the control group to 84.55% in the compound 3a treated group (Figure 4). […]
MCF-7 cells were seeded in 6-well plates and incubated at 37 °C for overnight and treatment with DMSO or compound 3a (0.5, 2.0 and 10.0 μM) for 24 h. The cells were washed twice with PBS, and incubated for 0.5 h at 37 °C in a PBS solution containing 1 mg/mL RNase A and propidium iodide (PI). C ell cycle was analyzed by flow cytometry (TASC240, USA).

MCF-7 cells [3] = assay: Annexin V FITC/PI apoptosis assay; format: cell-based, human; conditions: 2.0 µM, 24 h
Protocol: To investigate whether compound 3a could induces apoptosis, the apoptotic effect of compound 3a and DMSO (control) were evaluated by an annexin V FITC/PI (AV/PI) dual staining assay. After treatment MCF-7 cells with compound 3a at the concentration of 2.0 µM for 24 h, the cells were labelled with the two dyes and analysed by flow cytometry. […] In addition, an increase in the early/primary apoptosis was also observed from 1.85% to 20.0% (Figure 4).
MCF-7 cells were grown in 6-well plates and treated with compound 3a (0.5, 2.0 and
10.0 μM) or DMSO for 24 h. After treatment, the cells were collected and stained with
PI (propidium iodide) for 20 min. Apoptosis was analyzed using a flow cytometer. […]

in vitro = conditions: human
xenografted tumour = test system: xenografted tumour; parameters: method as in PMID 24308485; conditions: cited from earlier work
SW620 colon cancer cells = test system: SW620 colon cancer cells; parameters: method as in PMID 25193463; conditions: cited from earlier work

Compound | IC50 ([1]; Homo sapiens, MCF7, 48 h) | melting point | other results
COc1ccc2ccccc2c1C(=O)/C=C/c1ccccc1Br [3d] | 7.63 ± 0.45 µM | 150 to 152 °C | –
COc1ccc(/C=C/C(=O)c2c(OC)ccc3ccccc23)cc1O [3a] | 1.42 ± 0.15 µM | – | inhibition of tubulin polymerisation (tubulin; 3.0 µM): 21%; inhibition of tubulin polymerisation (tubulin; 6.0 µM): 41%; inhibition of tubulin polymerisation (tubulin; 12.5 µM): 60%; inhibition of tubulin polymerisation (tubulin; 25 µM): 82%; IC50 (tubulin; purified tubulin, absorbance 340 nm, read-out: IC50 tubulin polymerisation inhibition): 8.4 µM; accumulation of cells at G2/M phase compared to control (MCF-7 cells [2]): 5.5 folds; cells in G1 phase (MCF-7 cells [2]): 0.04%; cells in S phase (MCF-7 cells [2]): 15.41%; cells in G2/M phase (MCF-7 cells [2]; control 15.19%): 84.55%; Q1 cell fraction (MCF-7 cells [3]): 1.95%; Q4 cell fraction (MCF-7 cells [3]): 71.7%; late/secondary cellular apoptosis (Q2) (MCF-7 cells [3]; control 0.68%): 6.34%; early/primary apoptosis (Q3) (MCF-7 cells [3]; control 1.85%): 20.0%; IC50 (in vitro): 18.3 ± 1.3 µM
COc1ccc2ccccc2c1C(=O)/C=C/c1ccccc1F [3m] | 6.66 ± 0.27 µM | – | –
COc1ccc(C(=O)/C=C/c2cccc3ccccc23)c(O)c1 [HymnPro, 2-hydroxy-4-methoxy-2′,3′-benzochalcone] | – | – | effect on xenografted tumour growth (xenografted tumour): suppressed xenografted tumour growth
COc1cc(OC)c(OC)cc1/C=C/C(=O)c1c(OC)ccc2ccccc12 [3l] | 7.68 ± 0.32 µM | 147 to 149 °C | –
COc1cc(/C=C/C(=O)c2c(OC)ccc3ccccc23)cc(OC)c1OC [3p] | 7.23 ± 0.38 µM | 113 to 114 °C | –
COc1ccc2ccccc2c1C(=O)/C=C/c1ccc(Br)cc1 [3b] | 4.1 ± 0.25 µM | 127 to 129 °C | –
COc1ccc(/C=C/C(=O)c2c(OC)ccc3ccccc23)cc1Br [3g] | 7.11 ± 0.4 µM | 168 to 169 °C | –
COc1ccc2ccccc2c1C(=O)/C=C/c1cccc2ccccc12 [3e] | 7.13 ± 0.33 µM | 162 to 163 °C | –
COc1ccc2ccccc2c1C(=O)/C=C/c1cccs1 [3j] | > 10 µM | 149 to 150 °C | –
COc1ccc(/C=C/C(=O)c2c(OC)ccc3ccccc23)cc1[N+](=O)[O-] [3i] | 7.82 ± 0.35 µM | 157 to 159 °C | –
COc1ccccc1/C=C/C(=O)c1c(OC)ccc2ccccc12 [3q] | 7.67 ± 0.39 µM | 124 to 126 °C | –
COc1ccc2ccccc2c1C(=O)/C=C/c1ccc(N(C)C)cc1 [3r] | 8.91 ± 0.52 µM | 147 to 148 °C | –
COc1ccc2ccccc2c1C(=O)/C=C/c1cccc(F)c1 [3o] | 7.11 ± 0.47 µM | 142 to 143 °C | –
COc1ccc(/C=C/C(=O)c2c(OC)ccc3ccccc23)cc1N [3t] | 2.75 ± 0.26 µM | – | –
COc1ccc2ccccc2c1C(=O)/C=C/c1ccc2ccccc2c1 [3f] | 6.87 ± 0.26 µM | 107 to 109 °C | –
COc1cccc(/C=C/C(=O)c2c(OC)ccc3ccccc23)c1 [3h] | 6.67 ± 0.25 µM | 109 to 110 °C | –
N.N.[Cl][Pt][Cl] [Cisplatin, reference compound] | – | – | IC50 ([1]; 48 h): 15.2 ± 1.27 µM
COc1ccc(/C=C/C(=O)c2c(OC)ccc3ccccc23)c(OC)c1OC [3c] | > 10 µM | 107 to 108 °C | –
CCN(CC)c1ccc(/C=C/C(=O)c2c(OC)ccc3ccccc23)cc1 [3s] | 7.62 ± 0.3 µM | 142 to 144 °C | –
COc1ccc2ccccc2c1C(=O)/C=C/c1ccc(Cl)cc1 [3k] | 4.74 ± 0.19 µM | 142 to 143 °C | –
COc1ccc2ccccc2c1C(=O)/C=C/c1ccccc1 [3n] | 7.62 ± 0.36 µM | 142 to 144 °C | –
COc1cc(OC)c(/C=C/C(=O)c2c(O)ccc3ccccc23)c(OC)c1 [HMNC-74] | – | – | inhibition of clonogenicity (SW620 colon cancer cells): strongly inhibited
